Among the data in BindingDB's records for patent US12552798 (Henan Zhiwei Biomedicine Co., 2026) are IC50 values, retold here.

The term IC50 denotes the concentration that inhibits the measured activity by half. High values mean weaker potency, low ones greater potency.

Common to all, as to experiment: BTK, BMX, EGFR and ITK Inhibitory Assay
Test [1] has as its target Tyrosine-protein kinase BTK (Homo sapiens, UniProt Q06187). On the procedure:
(§1) Kinase inhibitory activities of compounds were evaluated using the Enzyme-linked immunosorbent assay (ELISA). The kinase enzyme of BTK, BMX, EGFR and ITK were purchased from Carna Bioscience (Kobe, Japan). A total of 10 ng/mL antiphosphotyrosine (PY713) antibody (abcam, Cambridge Science Park, UK) was precoated in 96-well ELISA plates. The kinase enzymes in each reaction well were set to BTK (101.25 ng/mL), BMX (90 ng/mL), EGFR (90 ng/mL) or ITK (120 ng/mL) and incubated with indicated compounds in 1× reaction buffer (50 mmol/L HEPES pH 7.4, 20 mmol/L MgCl2, 0.1 mmol/L MnCl2, 1 mmol/L DTT) containing 20 μmol/L (the final concentration of substrate in ITK reaction was 30 μmol/L) substrate (NH2-ETVYSEVRK-biotin) at 25° C. for 1 h. Then, a total of 3 μmol/L ATP was added and the reaction was continued for 2 hrs. The products of reaction were transferred into 96-well ELISA plates containing antibody and incubated at 25° C. for 30 min. After incubation, the wells were washed with PBS and then incubated with horseradish peroxidase […]-conjugated streptavidin. The wells were visualized using 3,3′,5,5′-tetramethylbenzidine (TMB), and chromogenic reaction was ended with 2 mol/L H2SO4, the absorbance was read with a multimode plate reader (PerkinElmer, USA) at 450 nm. IC50 values and curve fits were obtained using Prism (GraphPad Software).

Test [2] concerns the target T1, Cytoplasmic tyrosine-protein kinase BMX (Homo sapiens, UniProt P51813).
T1 sequence (P51813 whole entry): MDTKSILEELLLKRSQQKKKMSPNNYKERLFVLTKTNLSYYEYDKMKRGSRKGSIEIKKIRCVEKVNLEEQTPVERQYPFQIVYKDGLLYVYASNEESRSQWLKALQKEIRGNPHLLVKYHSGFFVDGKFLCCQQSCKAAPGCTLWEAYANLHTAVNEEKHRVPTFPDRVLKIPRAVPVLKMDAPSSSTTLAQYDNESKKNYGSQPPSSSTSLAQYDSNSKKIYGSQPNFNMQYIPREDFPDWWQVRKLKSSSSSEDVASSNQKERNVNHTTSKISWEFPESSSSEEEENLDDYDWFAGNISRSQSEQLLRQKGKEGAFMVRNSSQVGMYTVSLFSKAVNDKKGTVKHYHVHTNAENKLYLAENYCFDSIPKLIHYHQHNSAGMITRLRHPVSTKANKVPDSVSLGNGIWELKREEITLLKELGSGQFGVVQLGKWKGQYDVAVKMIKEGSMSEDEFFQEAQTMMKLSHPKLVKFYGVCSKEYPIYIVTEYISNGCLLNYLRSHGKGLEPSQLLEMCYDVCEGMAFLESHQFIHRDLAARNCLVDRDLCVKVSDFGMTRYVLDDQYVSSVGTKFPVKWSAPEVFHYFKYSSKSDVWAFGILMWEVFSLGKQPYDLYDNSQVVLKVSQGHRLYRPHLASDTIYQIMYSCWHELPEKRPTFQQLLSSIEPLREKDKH
On the procedure:
as §1

Test [3] concerns the target Epidermal growth factor receptor (Homo sapiens, UniProt P00533). The procedure: as §1
The target of test [4] is T2, Tyrosine-protein kinase ITK/TSK (Homo sapiens, UniProt Q08881).
T2 sequence (Q08881 whole entry): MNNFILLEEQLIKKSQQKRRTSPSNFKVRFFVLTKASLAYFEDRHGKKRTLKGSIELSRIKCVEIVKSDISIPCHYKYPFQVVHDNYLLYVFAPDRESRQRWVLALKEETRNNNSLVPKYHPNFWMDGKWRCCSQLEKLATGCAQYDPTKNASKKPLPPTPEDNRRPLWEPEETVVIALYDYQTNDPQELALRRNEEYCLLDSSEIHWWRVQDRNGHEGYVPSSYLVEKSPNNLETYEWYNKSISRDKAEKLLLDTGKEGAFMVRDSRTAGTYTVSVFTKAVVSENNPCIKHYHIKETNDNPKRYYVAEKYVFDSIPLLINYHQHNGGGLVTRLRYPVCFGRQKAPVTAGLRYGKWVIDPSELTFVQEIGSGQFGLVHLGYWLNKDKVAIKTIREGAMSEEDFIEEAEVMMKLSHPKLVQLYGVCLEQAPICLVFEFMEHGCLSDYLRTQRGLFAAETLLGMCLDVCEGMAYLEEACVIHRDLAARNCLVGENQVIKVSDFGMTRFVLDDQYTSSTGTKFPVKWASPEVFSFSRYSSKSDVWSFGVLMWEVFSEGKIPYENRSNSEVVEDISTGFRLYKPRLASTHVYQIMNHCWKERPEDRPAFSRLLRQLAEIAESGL
The procedure: as §1

Tyrosine-protein kinase BTK, sequence (Q06187 whole entry): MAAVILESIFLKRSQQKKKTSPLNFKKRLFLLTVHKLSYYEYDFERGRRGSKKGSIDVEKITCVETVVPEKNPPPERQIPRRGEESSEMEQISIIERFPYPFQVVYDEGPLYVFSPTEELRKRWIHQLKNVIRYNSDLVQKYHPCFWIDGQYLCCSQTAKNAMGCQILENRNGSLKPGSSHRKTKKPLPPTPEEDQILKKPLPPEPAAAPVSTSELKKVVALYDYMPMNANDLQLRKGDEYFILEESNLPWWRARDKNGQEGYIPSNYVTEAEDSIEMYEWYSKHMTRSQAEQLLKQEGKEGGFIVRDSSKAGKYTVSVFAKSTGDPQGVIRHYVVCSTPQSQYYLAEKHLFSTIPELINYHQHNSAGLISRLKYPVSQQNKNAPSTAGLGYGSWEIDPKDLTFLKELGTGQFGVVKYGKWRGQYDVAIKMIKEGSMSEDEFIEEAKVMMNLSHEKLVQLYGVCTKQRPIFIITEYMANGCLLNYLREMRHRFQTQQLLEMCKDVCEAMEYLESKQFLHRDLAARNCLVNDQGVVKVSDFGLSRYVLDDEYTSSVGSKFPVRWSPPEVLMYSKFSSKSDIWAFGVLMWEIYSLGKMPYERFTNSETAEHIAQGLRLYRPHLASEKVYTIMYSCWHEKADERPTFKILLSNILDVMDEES
Epidermal growth factor receptor, sequence (P00533 whole entry): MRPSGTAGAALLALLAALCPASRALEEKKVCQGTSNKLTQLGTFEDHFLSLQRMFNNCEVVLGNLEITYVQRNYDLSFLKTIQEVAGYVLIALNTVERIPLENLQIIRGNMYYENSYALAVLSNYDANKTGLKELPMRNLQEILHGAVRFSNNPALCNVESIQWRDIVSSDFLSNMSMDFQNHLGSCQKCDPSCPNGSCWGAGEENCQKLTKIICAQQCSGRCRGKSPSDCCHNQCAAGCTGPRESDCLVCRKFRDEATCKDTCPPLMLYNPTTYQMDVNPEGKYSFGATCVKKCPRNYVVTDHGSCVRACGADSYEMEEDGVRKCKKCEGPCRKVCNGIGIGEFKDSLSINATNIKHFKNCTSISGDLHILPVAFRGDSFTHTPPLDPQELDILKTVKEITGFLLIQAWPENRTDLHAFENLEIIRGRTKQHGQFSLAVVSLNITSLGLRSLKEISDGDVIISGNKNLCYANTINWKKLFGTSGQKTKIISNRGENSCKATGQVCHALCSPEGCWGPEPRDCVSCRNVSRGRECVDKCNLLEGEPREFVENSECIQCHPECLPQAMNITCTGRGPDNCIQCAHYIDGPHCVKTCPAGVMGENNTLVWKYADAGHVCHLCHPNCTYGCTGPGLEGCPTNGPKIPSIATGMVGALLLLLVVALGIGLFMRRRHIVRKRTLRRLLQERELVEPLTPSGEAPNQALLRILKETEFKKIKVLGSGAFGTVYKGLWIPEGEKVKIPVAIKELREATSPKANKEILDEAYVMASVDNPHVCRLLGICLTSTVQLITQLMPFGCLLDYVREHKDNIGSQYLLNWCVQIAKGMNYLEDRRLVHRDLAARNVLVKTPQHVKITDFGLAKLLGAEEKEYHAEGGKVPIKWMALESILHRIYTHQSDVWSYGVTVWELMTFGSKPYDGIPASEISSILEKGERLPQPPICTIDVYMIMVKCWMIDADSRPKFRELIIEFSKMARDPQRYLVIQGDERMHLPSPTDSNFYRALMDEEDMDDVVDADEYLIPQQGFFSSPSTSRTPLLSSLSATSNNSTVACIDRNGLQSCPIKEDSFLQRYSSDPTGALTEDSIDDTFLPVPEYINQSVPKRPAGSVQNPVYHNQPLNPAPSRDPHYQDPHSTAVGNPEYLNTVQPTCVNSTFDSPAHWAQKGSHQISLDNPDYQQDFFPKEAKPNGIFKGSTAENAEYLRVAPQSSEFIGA

Molecule `CC#CC(=O)N1CC(C2CCNn3c2nc(-c2ccc(Oc4ccccc4)cc2)c3C(N)=O)C1` (stereo not given) [US12552798, Example 19] showed an IC50 in test [1] of 230 nM.

On to `NC(=O)c1c(-c2ccc(Oc3ccccc3)cc2)nc2n1NCCC2C1CN(C(=O)/C=C/C(F)(F)F)C1` (stereo not given) [US12552798, Example 20], for which the IC50 in test [2] is 70.3 nM; in test [3] it was 3240 nM; in test [1], 8 nM; in test [4], 8650 nM.
